According to the supplement of paper PMC10307832:

Assays:
Assay in all cases: relative viability (nuclei count vs DMSO), 5 days (fraction); higher = more cells survive
[1] = compound: CCN1CCC(CC1)N2C=C(N=N2)CNC3=CC4=C(C(=CN=C4C(=C3)Cl)C#N)NC5=CC(=C(C=C5)F)Cl [KIN001-266]
Procedure, shortened: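 On vehicle-anchored 1536-well plates, lung cancer cell lines held overnight at 37 °C were pinned with five library-drug doses (not always all listed) spaced by √10. With no medium change over 5 days, they were then fixed, permeabilised and Hoechst-stained in one step and imaged at 4×. MetaXpress counted nuclei, and viability is the median across plates of treated-well over vehicle-well nuclei. Acceptance needed control CV below 25% and at least one doubling.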

[2] = compound: CCN1CCC(CC1)N2C=C(N=N2)CNC3=CC4=C(C(=CN=C4C(=C3)Cl)C#N)NC5=CC(=C(C=C5)F)Cl [KIN001-266] + CC1(C)CCC(c2ccc(Cl)cc2)=C(CN2CCN(c3ccc(C(=O)NS(=O)(=O)c4ccc(N[C@H](CCN5CCOCC5)CSc5ccccc5)c(S(=O)(=O)C(F)(F)F)c4)cc3)CC2)C1 [Navitoclax] (partner 0.5 µM)
Procedure, shortened: (§1)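 Cells from lung cancer lines were seeded into 1536-well plates and, one day later, dosed by pin tool. Treatments were either a single drug or a fixed dose of an anchor drug with five library-drug doses (not always all listed) in √10 steps. After 5 days, nuclei were stained in a one-step fixation (final 0.05% Triton X-100, 1% formaldehyde, 1 ug/ml Hoechst) and counted on 4× images, and relative viability is the treated-to-vehicle nuclei ratio, as the median of duplicate plates.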

[3] = compound: CCN1CCC(CC1)N2C=C(N=N2)CNC3=CC4=C(C(=CN=C4C(=C3)Cl)C#N)NC5=CC(=C(C=C5)F)Cl [KIN001-266] + Cc1cc(Nc2cc(N3CCN(C)CC3)nc(Sc3ccc(NC(=O)C4CC4)cc3)n2)n[nH]1 [Tozasertib] (partner 0.1 µM)
Procedure, shortened: as §1

[4] = compound: CCN1CCC(CC1)N2C=C(N=N2)CNC3=CC4=C(C(=CN=C4C(=C3)Cl)C#N)NC5=CC(=C(C=C5)F)Cl [KIN001-266] + N=C(N)NC(=N)NCCc1ccccc1 [Phenformin] (partner 250 µM)
Procedure, shortened: as §1

Cell Line | relative viability ([1]; 0.08 µM) | relative viability ([1]; 0.253 µM) | relative viability ([1]; 0.8 µM) | relative viability ([1]; 2.53 µM) | relative viability ([1]; 8 µM) | relative viability ([2]; first compound 0.08 µM) | relative viability ([2]; first compound 0.253 µM) | relative viability ([2]; first compound 0.8 µM) | relative viability ([2]; first compound 2.53 µM) | relative viability ([2]; first compound 8 µM) | relative viability ([3]; first compound 0.08 µM) | relative viability ([3]; first compound 0.253 µM) | relative viability ([3]; first compound 0.8 µM) | relative viability ([3]; first compound 2.53 µM) | relative viability ([3]; first compound 8 µM) | relative viability ([4]; first compound 0.08 µM) | relative viability ([4]; first compound 0.253 µM) | relative viability ([4]; first compound 0.8 µM) | relative viability ([4]; first compound 2.53 µM) | relative viability ([4]; first compound 8 µM)
NCI-H2126 | 1.01 | 1.03 | 0.978 | 0.925 | 0.975 | 0.844 | 0.86 | 0.863 | 0.813 | 0.855 | 0.8 | 0.857 | 0.85 | 0.84 | 0.78 | 0.535 | 0.519 | 0.546 | 0.555 | 0.5
NCI-H2170 | 1 | 0.995 | 0.979 | 0.935 | 1.01 | 0.598 | 0.549 | 0.623 | 0.647 | 0.605 | 0.802 | 0.715 | 0.623 | 0.785 | 0.709 | 0.38 | 0.383 | 0.377 | 0.358 | 0.334
NCI-H2228 | 1.03 | 1.02 | 1.02 | 0.903 | 0.808 | 0.738 | 0.937 | 1.4 | 0.851 | 0.514 | 0.312 | 0.255 | 0.266 | 0.192 | 0.264 | 0.392 | 0.282 | 0.322 | 0.296 | 0.281
NCI-H2347 | 1.04 | 1 | 1 | 0.989 | 0.582 | 0.869 | 0.747 | 0.787 | 0.834 | 0.453 | 0.521 | 0.5 | 0.558 | 0.518 | 0.367 | 0.405 | 0.428 | 0.435 | 0.519 | 0.24
NCI-H2405 | 1.03 | 1.02 | 0.977 | 0.958 | 0.821 | 1.02 | 1 | 0.901 | 0.881 | 0.4 | 0.763 | 0.792 | 0.746 | 0.684 | 0.455 | 0.401 | 0.412 | 0.378 | 0.379 | 0.155
NCI-H3122 | 0.967 | 1.02 | 1.01 | 0.919 | 0.95 | 0.968 | 1.09 | 1.01 | 0.998 | 0.769 | 0.428 | 0.389 | 0.389 | 0.378 | 0.37 | 0.349 | 0.367 | 0.325 | 0.274 | 0.307
PC-3 [JPC-3] | 1 | 1.06 | 0.916 | 1.03 | 0.859 | 0.813 | 0.869 | 0.759 | 0.738 | 0.803 | 0.844 | 0.916 | 0.774 | 0.815 | 0.788 | 0.466 | 0.496 | 0.48 | 0.475 | 0.477
PC-14 | 0.933 | 1.07 | 0.84 | 0.885 | 0.485 | 0.973 | 1.03 | 1.07 | 0.959 | 0.599 | 0.577 | 0.655 | – | 0.589 | 0.432 | 0.567 | 0.762 | 0.356 | 0.543 | 0.324
RERF-LC-KJ | 1.05 | 1.04 | 0.975 | 0.992 | 0.726 | 0.989 | 0.81 | 0.937 | 0.849 | 0.651 | 0.499 | 0.551 | 0.557 | 0.359 | 0.299 | 0.436 | 0.354 | 0.415 | 0.355 | 0.345
SK-LU-1 | 1.09 | 1 | 0.987 | 0.886 | 0.709 | 0.677 | 0.465 | 1.11 | 0.839 | 0.512 | 0.403 | 0.375 | 0.322 | 0.307 | 0.286 | 0.561 | 0.47 | 0.526 | 0.439 | 0.394
SK-MES-1 | 1.02 | 1.02 | 0.992 | 0.942 | 0.783 | 1.25 | 1.17 | 1.11 | 1.04 | 0.858 | 0.944 | 0.869 | 0.934 | 0.756 | 0.66 | 0.648 | 0.695 | 0.693 | 0.519 | 0.459
SW 1573 | 1.07 | 0.899 | 1.04 | 0.924 | 0.689 | 1.05 | 1.05 | 1.03 | 0.91 | 0.643 | 0.219 | 0.186 | 0.162 | 0.184 | 0.224 | 0.347 | 0.425 | 0.334 | 0.262 | 0.165
UMC-11 | 0.975 | 0.981 | 1 | 0.918 | 0.857 | 0.3 | 0.319 | 0.38 | 0.355 | 0.278 | 0.209 | 0.215 | 0.213 | 0.219 | 0.213 | 0.336 | 0.381 | 0.333 | 0.316 | 0.251
